Results on 27 molecules are retold here after US12195490B2, “STRAD-binding agents and uses thereof” (The Regents of the University of California, priority 2020, dated 2025).

The experiment deals with ACHN cell line. Nature of the experiment: drug screen of the SelleckChem kinase inhibitor library with and without 5 uM SU-329, Cell-Titer Glo after 5 days. To be noted: kinase inhibitor at 200 nM with and without 5 uM SU329; ACHN cell line; 5 days; Cell-Titer Glo. It counts as cell-based.
`COc1ccc(COc2cc3oc(=O)c4cc(C(C)O)ccc4c3cc2OC)cc1` (stereo not drawn) [Palomid 529 (P529)] gave a log2fc of 0.3192.
Take `Nc1cc(C(F)(F)F)c(-c2cc(N3CCOCC3)nc(N3CCOCC3)n2)cn1` [Buparlisib (BKM120, NVP-BKM120)]: the log2fc is given as −1.183.
Turning to `CCc1cc(Nc2nccc(-c3c(-c4ccc(OC)c(C(=O)Nc5c(F)cccc5F)c4)nc4ccccn34)n2)c(OC)cc1N1CCC(N2CCN(S(C)(=O)=O)CC2)CC1` [GSK1904529A], the log2fc stood at 0.6211.
Regarding `O=C1NCCc2[nH]c(-c3ccncc3)cc21` [PHA-767491], the log2fc is −0.9629.
To `O=C(NC[C@H](O)CO)c1ccncc1Nc1ccc(I)cc1F` [Pimasertib (AS-703026), AS703026, reference compound] belongs 0.3252; to `Cc1c(NC(=O)OC[C@@H]2COCCN2)cn2ncnc(Nc3ccc4c(cnn4Cc4cccc(F)c4)c3)c12` [AC480 (BMS-599626)], 0.6806.
As for `CN(C)C/C=C/C(=O)Nc1cc2c(Nc3ccc(F)c(Cl)c3)ncnc2cc1O[C@H]1CCOC1` [Afatinib (BIBW2992), afatinib, reference compound], the log2fc is on record as 0.04313.
For the molecule `Cc1cc(Nc2cc(N3CCN(C)CC3)nc(/C=C/c3ccccc3)n2)n[nH]1` [ENMD-2076], the log2fc came out at 0.6799.
Molecule `Cc1[nH]c(/C=C2\C(=O)Nc3ccc(S(=O)(=O)N(C)c4cccc(Cl)c4)cc32)c(C)c1C(=O)N1CCN(C)CC1` [SU11274] had a log2fc of 0.1013.
The value for `CN1CC[C@H](c2c(O)cc(O)c3c(=O)cc(-c4ccccc4Cl)oc23)[C@H](O)C1` [Flavopiridol (Alvocidib)] was 1.05.
In the case of `CCn1c(N)c(C(=O)NC)c(=O)c2ccc(C#C[C@@](C)(O)COC)nc21` [SAR131675], the log2fc is recorded as 0.374.
To `Cc1ccc(NC(=O)c2ccc(CN3CCN(C)CC3)cc2)cc1Nc1nc(-c2cccnc2)cs1` [Masitinib (AB1010)] belongs 0.1874; to `CC[C@H](CO)Nc1nc(NCc2ccccc2)c2ncn(C(C)C)c2n1` [Roscovitine (Seliciclib, CYC202)], 0.5993; to `O=C(c1ccc(Nc2nccc(-c3cc4ccccc4s3)n2)cc1)N1CCC(N2CCCC2)CC1` [IKK-16 (IKK Inhibitor VII)], −0.1183.
The molecule `Fc1cc(-c2cccc3ncc(-c4cnn(C5CCNCC5)c4)nc23)cc(F)c1CN1CCOCC1` [NVP-BSK805 2HCl] yielded a log2fc of −0.09499.
For the molecule `COc1ccc(S(=O)(=O)N(CCO)c2ccccc2CN(C)C/C=C/c2ccc(Cl)cc2)cc1.O=P(O)(O)O` [KN-93 Phosphate], the log2fc came to 0.02491.
To `COc1cc2nccc(Oc3ccc(NC(=O)Nc4cc(C)on4)c(Cl)c3)c2cc1OC` [Tivozanib (AV-951)] belongs 0.798.
In turn, `O=C(/C=C/c1ccc2ccccc2n1)c1ccncc1` [PFK15] showed a log2fc of −0.9312.
`CCc1cccc(CC)c1NC(=O)N1Cc2[nH]nc(NC(=O)c3ccc(N4CCN(C)CC4)cc3)c2C1` [PHA-680632] returned a log2fc of −0.4048.
In the case of `CCN1/C(=C/C(C)=O)Sc2ccc(OC)cc21` [TG003], the log2fc was found to be 0.4163.
For the molecule `O=C1Nc2ccc(I)cc2/C1=C/c1cc(Br)c(O)c(Br)c1` [GW5074], the log2fc is 0.4071.
The value for `COc1ccc(-c2ccc3ncc4c(c3c2)n(-c2ccc(N3CCNCC3)c(C(F)(F)F)c2)c(=O)n4C)cn1` [BGT226 (NVP-BGT226)] was −0.4638.
KN-62 returned a log2fc of −0.07258.
In turn, `O=C1Nc2ccccc2/C1=C1/Nc2ccccc2C1=O` [Indirubin] came in with a log2fc of −1.247.
To `CCc1nc(-c2cccc(C)c2)c(-c2ccnc(NC(=O)c3ccccc3)c2)s1` [TAK-715] belongs 0.02439.
Take `Cc1[nH]nc2ccc(-c3cncc(OC[C@@H](N)Cc4ccccc4)c3)cc12` [A-674563]: the log2fc is on record as −0.6438.
For `Oc1cc(O)cc(/C=C/c2ccc(O)c(O)c2)c1` [Piceatannol], the log2fc was found to be 0.5447.
